Data as given in patent US6306432A, “High and low load formulations of IGF-I in multivesicular liposomes” (Chiron Corporation, priority 1997, dated 2001).
Where a SMILES comes first, the peptide text is derived from it.

Columns and labels:
[1] = Osmolarity of sucrose and glycylglycine solutions and of the first aqueous component; format: physicochemical
From the text: Drug loading in MVLs is modulated by controlling the osmolarity of the first aqueous component used during manufacture of the MVLs. Osmolarity is the sum of the molar concentrations of solutes present in an aqueous solution. If the solute is present in a dissociated, ionized or aggregated form, osmolarity is defined as the sum of the molar concentrations of the dissociated, ionized or aggregated forms. The solutes that contribute to the osmolarity of an aqueous solution include the IGF-I, and osmotic excipients that are to be encapsulated during manufacture of MVLs. The contribution to the osmolarity of a solution made by any solute in the solution is approximately equivalent to the weight concentration of the solute in the solution (e.g., mg/mL) divided by its molecular weight. Thus, as a general principle, for a given weight concentration, the larger the molecular weight of a solute, the smaller the osmolarity of the solute, and the smaller the contribution of that solute to the overall osmolarity of the solution. It is also possible to reduce the osmolarity of the first aqueous component by reducing the concentration of the active agent. This method will lead to a lower loading of IGF-I if the concentration of other solutes in the first aqueous component remain constant.

[2] = In vivo pharmacokinetics, serum IGF-I after subcutaneous injection in rats, low load versus free IGF-I; design: species or system rat; conditions: 20 mg/kg s.c.
Procedure: In-vivo studies. The pharmacokinetic behavior of a low load MVL formulation containing IGF-I was compared to that of unencapsulated IGF-I after subcutaneous injections (lower back) in rats. 20 mg/kg doses of either free IGF-I or a MVL formulation or IGF-I prepared from a stock solution of 5 mg/ml IGF-I was injected into each rat, with 3 rats per group. Sera were collected at various times up to 8 days post injection, and assayed for IGF-I using an IGF-I ELISA kits (DSL-10-5600) (Diagnostic Systems Laboratories (DSL), Webster, Tex.) according to the manufacturer's instructions. The pharmacokinetic parameters were calculated using the WinNonlin program (Scientific Consulting Inc.) and a non-compartmental model.

[3] = Solubility of IGF-I in aqueous solution versus pH; format: physicochemical
Procedure: Applicants have also discovered a second parameter that must be taken into consideration in determining the composition of the first aqueous component during manufacture of the IGF-I formulations of this invention. The concentration of IGF-I in solution in the first aqueous component during manufacture is directly proportional to the amount of IGF-I that can be loaded in any give formulation. […] Further studies have shown that up to about 300 mg/mL of IGF-I can be solubilized at a pH below 5. Thus, to obtain and maintain sufficient IGF-I in solution in the first aqueous solution, a buffer or acid is also added to it during manufacture to assure a high enough concentration of dissolved IGF-I in the first aqueous component to obtain a final MVL product containing the desired loading of the drug. For the low load formulations, the pH of the first aqueous component is generally adjusted to a value within the range of 1 to about 5, while for high load formulations the pH range is between 2 and 4.8.

MG-63 cells = assay: Mitogenic bioassay, MG-63 cells, MTT stain; format: cell-based, human; conditions: standard control in mitogenic assay

| Compound | Osmolarity ([1]; 0.5 w/v %) | Osmolarity ([1]; 1.0 w/v %) | Osmolarity ([1]; 1.5 w/v %) | Osmolarity ([1]; 2.0 w/v %) | Osmolarity ([1]; 2.5 w/v %) | Osmolarity ([1]; 3.0 w/v %) | Osmolarity ([1]; 4.0 w/v %) | Osmolarity ([1]; 5.0 w/v %) | Osmolarity ([1]; 6.0 w/v %) | Osmolarity ([1]; 7.0 w/v %) | Osmolarity ([1]; 8.0 w/v %) | Time after which free IGF-I is cleared [2] | Solubility of IGF-I in aqueous solution ([3]; at a pH of about 5) | IGF-I solubilized ([3]; pH below 5) | Bioactivity of standard rhIGF-I (MG-63 cells; listed as recombinant human IGF-I) | Bioactivity of standard rhIGF-I (MG-63 cells; listed as rhIGF-I) |
| --- | --- | --- | --- | --- | --- | --- | --- | --- | --- | --- | --- | --- | --- | --- | --- | --- |
| OC[C@H]1O[C@@](CO)(O[C@H]2O[C@H](CO)[C@@H](O)[C@H](O)[C@H]2O)[C@@H](O)[C@@H]1O [sucrose] | 15 mOsm | 30 mOsm | 45 mOsm | 60 mOsm | 76 mOsm | 91 mOsm | 123 mOsm | 156 mOsm | 190 mOsm | 225 mOsm | 261 mOsm | – | – | – | – | – |
| Insulin-like Growth Factor I [IGF-I] | – | – | – | – | – | – | – | – | – | – | – | about 1 day | drops precipitously at a pH of about 5 | up to 300 mg/mL | 1.3×10^3 international units (IU)/mL | ~ 1.3×10^3 international units (IU)/mL |
| NCC(=O)NCC(=O)O [Glycylglycine, glycylglycine] (H-Gly-Gly-OH) | 38 mOsm | 76 mOsm | 114 mOsm | 152 mOsm | 189 mOsm | 227 mOsm | 303 mOsm | 379 mOsm | 455 mOsm | 530 mOsm | 606 mOsm | – | – | – | – | – |
